Experiments:
[1] = target: T1, DOCK2DHR-2 (lobe B and lobe C of the DHR-2 domain of DOCK2) (Homo sapiens, UniProt Q92608); test: in-vitro GEF assay, Rac activation by DOCK2 DHR-2 domain with various steroid compounds (Experimental Example 2); format: biochemical; details: IC50 against the Rac activation by DOCK2DHR-2, Experimental Example 2, Table 1
T1 construct: polypeptide fragments corresponding to a DHR-2 domain including the lobe B and the lobe C of DOCK2; Histidine-SUMO (N); made in house; host or cells: E. coli Arctic express DE3 (pET28a); Rac in E. coli BL21 DE3 (pGEX-6P-1)
T1 sequence (Q92608 1196-1622): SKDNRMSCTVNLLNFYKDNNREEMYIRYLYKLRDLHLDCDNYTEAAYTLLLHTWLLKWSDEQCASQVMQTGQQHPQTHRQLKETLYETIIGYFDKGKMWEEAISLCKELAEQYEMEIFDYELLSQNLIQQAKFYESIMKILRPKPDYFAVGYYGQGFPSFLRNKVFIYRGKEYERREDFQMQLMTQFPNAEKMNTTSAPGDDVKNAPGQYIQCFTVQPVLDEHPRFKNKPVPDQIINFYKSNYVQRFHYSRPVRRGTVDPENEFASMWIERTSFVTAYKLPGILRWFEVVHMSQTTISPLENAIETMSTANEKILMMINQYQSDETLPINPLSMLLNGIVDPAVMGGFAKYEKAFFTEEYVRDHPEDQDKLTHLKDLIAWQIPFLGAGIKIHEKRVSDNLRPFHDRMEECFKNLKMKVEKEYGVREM
Experimental: An examination was performed using various steroid compounds to test their effects on the Rac activation induced by proteins composed of the lobe B and the lobe C of the DHR-2 domain of DOCK2.
As the steroid compounds, cholesterol 3-sulfate (hereinafter, referred to as “C3S” in some cases), cholesterol, cholesterol 3-acetate (hereinafter, referred to as “C3A” in some cases), pregnenolone 3-sulfate (hereinafter, referred to as “PREG3S” in some cases), dehydroepiandrosterone (hereinafter, referred to as “DHEA” in some cases), dehydroepiandrosterone 3-sulfate (hereinafter, referred to as “DHEA3S” in some cases), estrone 3-sulfate (hereinafter, referred to as “Estrone3S” in some cases), estriol 3-sulfate (hereinafter, referred to as “Estriol3S” in some cases), and estradiol 3-sulfate (hereinafter, referred to as “Estradiol3S” in some cases) were used.
More specifically, a DOCK2-DHR-2 domain protein prepared by the same method as described above was incubated for 20 minutes at room temperature in the presence of various steroid compounds at a predetermined concentration dissolved in DMSO or in the presence of DMSO alone (control) under the shielded condition from light, thereby preparing a pretreated substance of GEF. The concentration of DMSO was adjusted such that it became 3% (1% in the final reaction solution) in all samples. Then, by in-vitro GEF assay in which Rac and Bodipy-FL-GTP prepared by the same method as described above were used, Rac activation by the DHR-2 domain was measured.

[2] = system: neutrophils isolated from the mouse bone marrow; test: neutrophil migration assay 1 (EZ-TAXIScan, fMLP gradient, pretreated cells); format: cell-based; details: pretreated 1 hour, fMLP gradient 0 to 10 μM
Experimental: The influence of cholesterol 3-sulfate on a migration speed of neutrophils was examined. More specifically, in the presence of cholesterol 3-sulfate at a predetermined concentration or in the presence of DMSO alone (vehicle control), neutrophils isolated from the mouse bone marrow were incubated for 1 hour at room temperature in 20 mM HEPES-NaOH (pH 7.3)-0.1% BSA-containing RPMI-1640 (Taxiscan medium). The concentration of DMSO was adjusted such that the final concentration of DMSO became 0.2% in all samples.
Then, the pre-treated cells were loaded on wells of one side of the chamber of EZ-TAXIScan (Effector Cell Institute, Inc). After 1 μL of fMLP in a Taxiscan medium was added at a concentration of 10 μM to wells of the other side 260 μm distant from the above wells, neutrophils were allowed to migrate in the presence of a fMLP gradient (0 to 10 μM). Phase-contrast micrographs were obtained for 20 minutes at an interval of 30 seconds, and the trace and speed of neutrophils were analyzed by using manual tracking of the Image J program and a chemotaxis and migration tool.

[3] = system: neutrophils derived from the mouse bone marrow; test: neutrophil migration assay 2 (EZ-TAXIScan, compound added to the fMLP source); format: cell-based; details: 150 μM added to well with 3 μM fMLP, no pretreatment
Experimental: An examination was performed about the influence of cholesterol 3-sulfate on the migration speed of neutrophils when the cells and the chemical migration factor (fMLP) are added to the same well without pretreating the cells. […] Phase-contrast micrographs were obtained for 40 minutes at an interval of 30 seconds and analyzed by the same method as described above. (a) to (c) of FIG. 12 are graphs and photographs showing the experiment results.

Question: What does the source list for `CC(C)CCC[C@@H](C)[C@H]1CC[C@H]2[C@@H]3CC=C4C[C@@H](OS(=O)(=O)O)CC[C@]4(C)[C@H]3CC[C@]12C` [C3S, cholesterol 3-sulfate]?
Answer: IC50 [1]: 2000 nM; migration of neutrophils (migration speed) in response to fMLP [2]: markedly inhibited; migration of neutrophils towards fMLP source containing the compound [3]: rapidly stop

Reference: patent US12213984B2, “Immunoregulatory agent” (KYUSHU UNIVERSITY, NATIONAL UNIVERSITY CORPORATION, priority 2015, dated 2025)
